Consider 4 compounds from patent US12312419B2, “Hemiasterlin derivative having cysteine residue” (priority 2019, dated 2025).

In one assay the test system is Karpas-299 cells. Put plainly: Cellular toxicity test (1), CellTiter-Glo cell viability. The settings on record: Homo sapiens, 96 h; Karpas-299; cultured 4 days; cell viability. Format: cell-based, human. The procedure: Karpas-299 cells (European Collection of Authenticated Cell Cultures, hereinafter, ECACC), which are human lymphoma cell lines, were cultured in RPMI 1640 (GIBCO) containing 10% fetal bovine serum (MP Biomedicals) (hereinafter, referred to as the “culture medium”). Cells were prepared to be 2×10^5 cells/mL in the culture medium, and were added to a 96 well microplate for cell culturing in an amount of 50 μL for each well. Compounds of Examples or the Comparative Example compound 4 times diluted with the culture medium in 8 stages were added to the microplate in an amount of 50 μL for each well. These were cultured at 37° C. under 5% CO2 for 4 days. After culturing, the microplate was taken out from the incubator, and was left at rest at room temperature for 10 minutes. To each well, 50 μL of CellTiter-Glo Luminescent Cell Viability Assay (Promega) was added, and the resultant mixture was stirred. This mixture was incubated at a dark place for 20 minutes. Using a microplate luminometer, luminescence at each well was measured, thereby calculating the cell viability. From the value of the cell viability, the IC50 value was calculated.
The IC50 value was calculated by the following formula: IC50(nM)=antilog(LOG10(a/b)×(e−d)/(c−d)+LOG10b) • a: concentration a of test substance • b: concentration b of test substance • c: cell viability upon adding test substance with concentration a • d: cell viability upon adding test substance with concentration b • e: intermediate value between maximum and minimum among cell viabilities upon adding test substances with different concentrations (a and b are concentrations crossing the cell viability e, and a>b is indicated).
The cell viability at each concentration was calculated by the following formula: Cell Viability (%)=a′/b′×100 • a′: mean value of luminescence amount of wells to which test substance was added (n=6) • b′: mean value of luminescence amount of wells to which test substance was not added (n=6) • (n represents the number of evaluations performed per test substance concentration).

Assay [1] concerns porcine tubulin. Put plainly: Evaluation of activity for inhibiting microtubule polymerization using porcine tubulins (1). Format: biochemical. The note with it: compound 9.1 μM; absorbance at 340 nm at 37° C. over time; FIG. 1. Here is the method: (§1) Using a tubulin polymerization inhibition assay kit (catalog number: BK006P) purchased from Cytoskeleton Inc., the polymerization inhibitory activity of compounds of Examples with a concentration of 9.1 μM was evaluated in accordance with the protocol appended to the kit. In summary of the protocol, to a 96 well microplate, 80 mM PIPES pH 6.9, 2 mM MgCl, 0.5 mM EGTA and 5% DMSO buffered solution of the compound to be evaluated was added in an amount of 10 μL for each well, and to these wells, 3 mg/ml porcine tubulin 80 mM PIPES pH 6.9, 2 mM MgCl, 0.5 mM EGTA, 1 mM GTP and 10.2% glycerol solution was added in an amount of 100 μL for each well. In order to examine a state in which tubulins polymerize over time, the absorbance at 340 nm was measured at 37° C., using a microplate reader. As the polymerization of tubulins progresses, the absorbance at 340 nm rises.

Assay [2] deals with porcine tubulin. Put plainly: Evaluation of activity for inhibiting microtubule polymerization using porcine tubulins (2). It counts as biochemical. The settings on record: compound 9.1 μM; 60 minutes after assay initiation; relative to wells without compound; lower = stronger inhibition. Here is the method: as §1, with “To” for “In summary of the protocol, to”, “mg/mL” for “mg/ml”
The tubulin polymerization inhibitory activity was evaluated based on the proportion of polymerized tubulins 60 minutes after the assay initiation. Specifically, the microtubule polymerization rate (%) was calculated by dividing the absorbance of tubulins that had polymerized at wells to which the compound had been added by the absorbance of tubulins that had polymerized at wells to which the compound had not been added, and multiplying the obtained value by 100.

pIC50: −log10 of the molar value.

On to `CN[C@H](C(=O)N[C@H](C(=O)N(C)[C@H](/C=C(\C)C(=O)N[C@H](CCC(=O)NCCN1C(=O)CC(SC[C@H](N)C(=O)O)C1=O)C(=O)O)C(C)C)C(C)(C)C)C(C)(C)c1ccccc1` (stereo partly drawn) [Example MM1, (3S,6S,9S,10E,14R)-14-(3-{[2-(3-{[(2R)-2-Amino-2-carboxyethyl]sulfanyl}-2,5-dioxopyrrolidin-1-yl)ethyl]amino}-3-oxopropyl)-6-tert-butyl-8,11-dimethyl-4,7,12-trioxo-3-(2-phenylpropan-2-yl)-9-(propan-2-yl)-2,5,8,13-tetraazapentadec-10-en-15-oic Acid], for which the pIC50 in the assay on Karpas-299 cells is below 6.00. Besides, in the assay with porcine tubulin [1], the “activity for inhibiting microtubule polymerization” value was “exhibited activities for inhibiting microtubule polymerization”. Besides, the “Microtubule polymerization rate (%)” value in the assay with porcine tubulin [2] turned out to be 9%.
`CN[C@H](C(=O)N[C@H](C(=O)N(C)[C@H](/C=C(\C)C(=O)N[C@H](CCC(=O)NCCN1C(=O)CC(SC[C@H](N)C(=O)O)C1=O)C(=O)O)C(C)C)C(C)(C)C)C(C)(C)C1CCCCC1` (stereo partly drawn) [Example MM32]: in the assay on Karpas-299 cells, the negative logarithm of the IC50 (pIC50) was below 6.00. Besides, the “Microtubule polymerization rate (%)” value in the assay on porcine tubulin [2] worked out at 0%.
For `C/C(=C\[C@H](C(C)C)N(C)C(=O)[C@@H](NC(=O)[C@@H](N)C(C)(C)c1ccccc1)C(C)(C)C)C(=O)N[C@H](CCC(=O)NCCN1C(=O)CC(SC[C@H](N)C(=O)O)C1=O)C(=O)O` (stereo partly drawn) [Example MM45], in that order: below 6.00 and 56%.
For `C/C(=C\[C@H](C(C)C)N(C)C(=O)[C@@H](NC(=O)[C@@H](N(C)C)C(C)(C)c1ccccc1)C(C)(C)C)C(=O)N[C@H](CCC(=O)NCCN1C(=O)CC(SC[C@H](N)C(=O)O)C1=O)C(=O)O` (stereo partly drawn) [Example MM46], the pIC50 in the assay on Karpas-299 cells was below 6.00. Also, the “Microtubule polymerization rate (%)” value with porcine tubulin [2] is recorded as 0%.

A word on the pIC50: it is the IC50 on a negative log10 scale, so that one unit is a factor of ten.
